Square brackets hold non-standard residues; d marks the D form. Ends that are not written are not given here. Peptide text beside a SMILES is read from it.
Experiments:
prostate = assay: In vivo panning of X7 phage library, prostate versus brain; parameters: species or system mice; details: phage displayed peptide
Protocol: An X7 library was injected into mice, and sequences isolated that were preferentially found in prostate as compared to brain as described in WO 99/46284.

[1] = system: normal human dermal microvessel endothelial cells (DMECs); assay type: cell-based; parameters: dose or concentration left out as unconfirmed; details: proliferation or cord formation
[2] = Cytotoxicity to eukaryotic cells (lethal concentration for 50% of a cell monolayer); assay type: cell-based; details: human; lethal concentration required to kill 50% of a cell monolayer; read-out: concentration required to kill eukaryotic cells (LC50)
Protocol: (§1) Mild swelling was evident at a concentration of 3 μM, two orders of magnitude less than the concentration required to kill eukaryotic cells (approximately 300 μM), as measured by the lethal concentration required to kill 50% of a cell monolayer (LC50; Table 1).
(§2) Percent viability and LC50 (Table 1) were determined by apoptotic morphology as described in Ellerby et al., J. Neurosci. 17:6165-6178 (1997). For the percent viability assays, dermal microvessel endothelial cells were treated with 60 μM HPP-1 or control peptide D(KLAKLAK)2. At the indicated time points, cell culture medium was aspirated from adherent cells, and the cells were gently washed once with PBS at 37° C. Subsequently, a 20-fold dilution of the dye mixture (100 μg/ml acridine orange and 100 μg/ml ethidium bromide) in PBS was gently pipetted on the cells, which were viewed on an inverted microscope (Nikon TE 300). […] At least 500 cells were scored for a given time point in each experiment. Percent viability was calculated relative to untreated controls. The LC50 for monolayer, proliferation ([…]), and cord formation were scored at 72 hours.

[3] = system: caspase-3 processing in rat liver mitochondria suspended in normal cytosolic extract; assay: Mitochondria-dependent cell-free apoptosis (caspase-3 processing immunoblot); assay type: biochemical; details: 100 μM peptide, 2 hours, in the presence of mitochondria
Protocol: The D(KLAKLAK)2 peptide was assayed for the ability to activate mitochondria-dependent apoptosis in a cell-free system composed of normal mitochondria suspended in normal cytosolic extract (Ellerby et al., J. Neurosci. 17:6165-6178 (1997)).
The cell-free apoptosis assays were performed essentially as follows. The cell-free systems were reconstituted as described in Ellerby et al., supra, 1997, and, for mitochondria-dependent reactions, rat liver mitochondria were suspended in normal (non-apoptotic) cytosolic extract prepared from dermal microvessel endothelial cells. After adding peptides at a concentration of 100 μM and incubating for 2 hours at 30° C. or 37° C., mitochondria were removed by centrifugation, and the supernatant analyzed by SDS/PAGE immunoblotting on a 12% gel (Biorad; Hercules, Calif.). Proteins were transferred to PVDF membranes (Biorad) and incubated with anti-caspase-3 antibody (Santa Cruz Biotechnology; Santa Cruz, Calif.), followed by ECL detection (Amersham; Arlington Heights, Ill.).

rat liver mitochondria = assay: Mitochondrial swelling assay (optical absorbance at 520 nm); assay type: biochemical
Protocol: Mitochondrial swelling assays were performed as follows. Briefly, rat liver mitochondria were prepared as described in Ellerby et al., J. Neurosci. 17:6165-6178 (1997). Peptides were synthesized at higher than 90% purity by HPLC (DLSLARLATARLAI (SEQ ID NO: 204), Coast Scientific, Inc., San Diego, Calif.; all other peptides, AnaSpec, Inc.). Mitochondria were treated with a concentration of 10 μM D(KLAKLAK)2, 10 μM DLSLARLATARLAI negative control peptide (SEQ ID NO: 204), or 200 μM CA^+2 as a positive control. Peptides were added to mitochondria in a cuvette, and swelling was quantified by measuring the optical absorbance at 520 nm.

[4] = system: dermal microvessel endothelial cells; assay: Mitochondrial morphology of proliferating DMECs (MitoTracker Red / DAPI); assay type: cell-based, human; details: 60 μM peptide, 24 hours
Protocol: Mitochondrial morphology of dermal microvessel endothelial cells was assessed in proliferating cells after treatment with 60 μM HPP-1, […]-GG-D(KLAKLAK)2 or untargeted D(KLAKLAK)2 as follows. Dermal microvessel endothelial cells were stained after 24 and 72 hours treatment with peptide by incubation for 30 min at 37° C. with 100 nM mitochondrial stain MitoTracker Red™ (Molecular Probes, Inc., Eugene Oreg.) and 500 nM of the nuclear stain DAPI (Molecular Probes, Inc.). Mitochondria were subsequently visualized using fluorescence microscopy (100×) under an inverted microscope using a triple wavelength filter set (Nikon).

in vitro = assay type: cell-based; details: human; monolayer at 100% confluency; scored at 72 hours; means of three independent experiments; read-out: LC50 DMEC Angiostatic
Protocol: (§3) The effect of HPP-1 was assayed on normal human dermal microvessel endothelial cells (DMECs) under the angiogenic conditions of proliferation and cord formation. In addition, the effect of HPP-1 was assayed under the angiostatic condition of a monolayer maintained at 100% confluency (as described below).
(§4) Briefly, dermal microvessel endothelial cells (DMECs) were grown in CADMEC Growth Media™ (Cell Applications, Inc.; San Diego, Calif.). Dermal microvessel endothelial cells were then cultured under three experimental conditions: proliferation, 30% confluency in a growth media supplemented with 500 ng/ml human recombinant vascular endothelial growth factor (VEGF; Pharmingen); no proliferation, 100% confluency in media formulated to maintain a monolayer; and cord formation, 60% confluency (required for induction) in media formulated to induce cord formation. The KS1767 and MDA-MB-435 cells were cultured as described in Arap et al., supra, 1998; Hernier et al., supra, 1994).
as §2

normal mouse prostate = assay: Prostate-selective apoptosis (TUNEL staining); assay type: in vivo; details: single dose of 250 μg peptide/mouse; 24 hours
Protocol: The ability of the SMSIARL peptide (SEQ ID NO: 207) to deliver a pro-apoptotic peptide, D(KLAKLAK)2, to the prostate was analyzed. Briefly, SMSIARL-GG-D(KLAKLAK)2 chimeric peptide or control material was administered as a single dose of 250 μg peptide/mouse, and TUNEL staining was performed on tissues obtained 24 hours later.

[5] = system: prostate cancer in TRAMP mice; assay: Treatment of TRAMP mice (transgenic prostate cancer); assay type: in vivo; details: 250 μg/dose; 10 mice per group
Protocol: TRAMP mice develop prostate cancer under the influence of a transgene as described in Gingrich et al., supra, 1996. SMSIARL-GG-D(KLAKLAK)2 chimeric peptide was assayed for the ability to suppress cancer development in the TRAMP mice. Treatment was initiated at 12 weeks of age with mice (10 per group) receiving SMSIARL-GG-D(KLAKLAK)2 peptide or control peptide at 250 μg/dose every other week for a total of 10 doses. Four mice, which had no visible tumor, were eliminated from the SMSIARL-GG-D(KLAKLAK)2 group after dying within minutes after the injection.

[6] = system: human 435 breast carcinoma tumor; assay: In vivo targeting of RGD phage to breast tumor; parameters: species or system nude mice; details: coinjection of 500 μg free peptide
Protocol: Human 435 breast carcinoma cells were inoculated into the mammary fat pad of nude mice. When the tumors attained a diameter of about 1 cm, phage expressing a specific RGD-containing peptide were administered to the tumor bearing mouse. Similar results to those discussed below also were obtained with nude mice bearing tumors formed by implantation of human melanoma C8161 cells or by implantation of mouse B16 melanoma cells.
1×10^9 phage expressing the RGD-containing peptide, […] (SEQ ID NO: 1; see, Koivunen et al., supra, 1995) or control (insertless) phage were injected intravenously (iv) into the mice and allowed to circulate for 4 min. The mice then were snap frozen or perfused through the heart while under anesthesia, and various organs, including tumor, brain and kidney, were removed and the phage present in the organs was quantitated (see U.S. Pat. No. 5,622,699; Pasqualini and Ruoslahti, supra, 1996).

[7] = system: breast carcinoma xenografts; assay: Competition of phage homing by co-injected free peptide
prostate tissue = assay: Prostate homing of SMSIARL phage after intravenous injection; assay type: in vivo, mice; details: coinjection
Text: Using in vivo screening of a heptapeptide phage library, a prostate-homing peptide has been identified that concentrates in the prostate 35-fold more than in various other tissues.

[8] = system: normal human dermal microvessel endothelial cells (DMECs); assay: in vitro; assay type: cell-based; details: controls and alternative prototype; data not shown
Protocol: as §3, §4, §2

bacteria = details: Javadpour et al. 1996; cited from earlier work
eukaryotic cells = assay: Cytotoxicity to eukaryotic cells (lethal concentration for 50% of a cell monolayer); assay type: cell-based
Protocol: as §1, §2

VSFLEYR [prostate homing peptide]
enrichment in prostate as compared to brain (prostate): 17 fold

CC(C)C[C@@H](NC(=O)[C@H](N)CCCCN)C(=O)N[C@H](C)C(=O)N[C@H](CCCCN)C(=O)N[C@H](CC(C)C)C(=O)N[C@H](C)C(=O)N[C@H](CCCCN)C(=O)N[C@H](CCCCN)C(=O)N[C@H](CC(C)C)C(=O)N[C@H](C)C(=O)N[C@H](CCCCN)C(=O)N[C@H](CC(C)C)C(=O)N[C@H](C)C(=O)N[C@H](CCCCN)C(=O)O [D(KLAKLAK)2]
percent viability with time relative to untreated controls [1]: negligible loss in viability | CC50 at 72 h [2]: ~300 µM | caspase-3 processing in cell-free system [3]: characteristic caspase-3 processing the active protease was observed | mitochondrial swelling (rat liver mitochondria; 3 μM peptide): Mild swelling | mitochondrial swelling (rat liver mitochondria; 10 μM peptide): marked mitochondrial swelling | mitochondrial morphology [4]: remained morphologically normal | CC50 at 72 h (in vitro): 492 µM

CC[C@H](C)[C@H](NC(=O)[C@H](CO)NC(=O)[C@H](CCSC)NC(=O)[C@@H](N)CO)C(=O)N[C@@H](C)C(=O)N[C@@H](CCCNC(=N)N)C(=O)N[C@@H](CC(C)C)C(=O)NCC(=O)NCC(=O)N[C@H](CCCCN)C(=O)N[C@H](CC(C)C)C(=O)N[C@H](C)C(=O)N[C@H](CCCCN)C(=O)N[C@H](CC(C)C)C(=O)N[C@H](C)C(=O)N[C@H](CCCCN)C(=O)N[C@H](CCCCN)C(=O)N[C@H](CC(C)C)C(=O)N[C@H](C)C(=O)N[C@H](CCCCN)C(=O)N[C@H](CC(C)C)C(=O)N[C@H](C)C(=O)N[C@H](CCCCN)C(=O)O [SMSIARL-GG-D(KLAKLAK)2] (H-SMSIARLGG[dK][dL][dA][dK][dL][dA][dK][dK][dL][dA][dK][dL][dA][dK]-OH)
apoptosis in other tissues such as testis, kidney or brain (TUNEL) (normal mouse prostate): no evidence of increased apoptosis | mice dying within minutes after the injection [5]: Four

GRGESP
reduction of phage in the tumor by coinjected free peptide [6]: essentially had no effect

CNGRC (not fully specified; cysteine pairing not given here)
effect of co-injected peptide on homing of […] phage [7]: did not inhibit | effect of co-injected peptide on accumulation of NGR phage in tumor ([7]; phage expressing CNGRCVSGCAGRC): inhibited

SMSIARL [prostate homing peptide]
enrichment in prostate as compared to brain (prostate): 34 fold | effect of coinjected synthetic peptide on prostate-selective phage homing (prostate tissue): inhibited the prostate-selective homing of phage

CARAC-GG-D(KLAKLAK)2 [reference compound]
effect on viability of dermal microvessel endothelial cells, compared with other peptide [8]: results similar to D(KLAKLAK) 2

KLAKLAKKLAKLAK [synthetic antimicrobial 14-mer of Javadpour et al]
concentration that kills bacteria relative to concentration required to kill eukaryotic cells (bacteria): two orders of magnitude lower

DLSLARLATARLAI [non-α-helix forming negative control peptide]
lethality to eukaryotic cells (eukaryotic cells): not lethal | caspase-3 processing in cell-free system [3]: inactive | mitochondrial swelling (rat liver mitochondria; 10 μM peptide): did not induce mitochondrial swelling

CGRNC-GG-D(KLAKLAK)2 [reference compound]
effect on viability of dermal microvessel endothelial cells, compared with other peptide [8]: results similar to D(KLAKLAK) 2

Reference: patent publication US20010046498A1, “Chimeric prostate-homing peptides with pro-apoptotic activity” (priority 2000, published 2001)
